According to US20150148256A1, “BIOLUMINESCENCE IMAGING-BASED SCREENING ASSAY AND INHIBITORS OF ABCG2” (THE JOHNS HOPKINS UNIVERSITY, priority 2008, published 2015):
Where a name gives a salt, the structure may show the parent alone. Read-outs that look alike come from different tables or passages of the source.

Experiments:
[1] = test system: NCI-H460 parent line; assay: MTX survival of parent NCI-H460 cells (XTT); assay type: cell-based, human; conditions: three days
[2] = test system: ABCG2-overexpressing NCI-H460/MX20 cells
[3] = target: T1, ABCG2 (Homo sapiens, UniProt Q9UNQ0); assay: Bioluminescence imaging (BLI) assay in HEK293/ABCG2/fLuc cells
T1 sequence (Q9UNQ0 1-655): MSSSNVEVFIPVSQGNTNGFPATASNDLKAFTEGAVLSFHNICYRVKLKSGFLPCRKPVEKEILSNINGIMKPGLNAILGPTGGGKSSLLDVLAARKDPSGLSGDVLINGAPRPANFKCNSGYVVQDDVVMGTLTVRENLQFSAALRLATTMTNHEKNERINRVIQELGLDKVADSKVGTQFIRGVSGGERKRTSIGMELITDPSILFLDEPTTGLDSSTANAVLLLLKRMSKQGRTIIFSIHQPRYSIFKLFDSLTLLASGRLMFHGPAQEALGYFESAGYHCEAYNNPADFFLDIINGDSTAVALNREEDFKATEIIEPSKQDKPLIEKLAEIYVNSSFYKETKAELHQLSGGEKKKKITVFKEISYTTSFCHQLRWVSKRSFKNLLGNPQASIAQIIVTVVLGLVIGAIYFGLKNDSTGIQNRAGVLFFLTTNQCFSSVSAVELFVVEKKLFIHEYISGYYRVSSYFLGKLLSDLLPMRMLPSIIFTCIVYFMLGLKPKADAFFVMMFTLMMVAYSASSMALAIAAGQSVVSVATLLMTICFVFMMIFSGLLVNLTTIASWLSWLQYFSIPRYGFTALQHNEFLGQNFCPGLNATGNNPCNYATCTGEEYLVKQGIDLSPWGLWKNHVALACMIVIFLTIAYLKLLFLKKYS
Outline: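 Light output from HEK293/ABCG2/fLuc cells plated at 4×10^4 per well, treated with compounds, imaged every 5 min for ~1 h. Values are signal-to-background ratios versus solvent control at 40 min, indicating ABCG2 inhibition. Dose range 0.001 μM-100 μM with 50 μg/mL D-luciferin for selected compounds.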

[4] = target: T2, MRP1 (Multiple Drug Resistance Protein 1) (Homo sapiens, UniProt P33527); assay: Colchicine resensitization assay in MDCKII cells overexpressing MRP1; assay type: cell-based; conditions: for MRP1 inhibition: even at relatively high concentration (30 μM)
T2 construct: expressed in transfected cells; host or cells: MDCKII
T2 sequence (P33527 whole entry): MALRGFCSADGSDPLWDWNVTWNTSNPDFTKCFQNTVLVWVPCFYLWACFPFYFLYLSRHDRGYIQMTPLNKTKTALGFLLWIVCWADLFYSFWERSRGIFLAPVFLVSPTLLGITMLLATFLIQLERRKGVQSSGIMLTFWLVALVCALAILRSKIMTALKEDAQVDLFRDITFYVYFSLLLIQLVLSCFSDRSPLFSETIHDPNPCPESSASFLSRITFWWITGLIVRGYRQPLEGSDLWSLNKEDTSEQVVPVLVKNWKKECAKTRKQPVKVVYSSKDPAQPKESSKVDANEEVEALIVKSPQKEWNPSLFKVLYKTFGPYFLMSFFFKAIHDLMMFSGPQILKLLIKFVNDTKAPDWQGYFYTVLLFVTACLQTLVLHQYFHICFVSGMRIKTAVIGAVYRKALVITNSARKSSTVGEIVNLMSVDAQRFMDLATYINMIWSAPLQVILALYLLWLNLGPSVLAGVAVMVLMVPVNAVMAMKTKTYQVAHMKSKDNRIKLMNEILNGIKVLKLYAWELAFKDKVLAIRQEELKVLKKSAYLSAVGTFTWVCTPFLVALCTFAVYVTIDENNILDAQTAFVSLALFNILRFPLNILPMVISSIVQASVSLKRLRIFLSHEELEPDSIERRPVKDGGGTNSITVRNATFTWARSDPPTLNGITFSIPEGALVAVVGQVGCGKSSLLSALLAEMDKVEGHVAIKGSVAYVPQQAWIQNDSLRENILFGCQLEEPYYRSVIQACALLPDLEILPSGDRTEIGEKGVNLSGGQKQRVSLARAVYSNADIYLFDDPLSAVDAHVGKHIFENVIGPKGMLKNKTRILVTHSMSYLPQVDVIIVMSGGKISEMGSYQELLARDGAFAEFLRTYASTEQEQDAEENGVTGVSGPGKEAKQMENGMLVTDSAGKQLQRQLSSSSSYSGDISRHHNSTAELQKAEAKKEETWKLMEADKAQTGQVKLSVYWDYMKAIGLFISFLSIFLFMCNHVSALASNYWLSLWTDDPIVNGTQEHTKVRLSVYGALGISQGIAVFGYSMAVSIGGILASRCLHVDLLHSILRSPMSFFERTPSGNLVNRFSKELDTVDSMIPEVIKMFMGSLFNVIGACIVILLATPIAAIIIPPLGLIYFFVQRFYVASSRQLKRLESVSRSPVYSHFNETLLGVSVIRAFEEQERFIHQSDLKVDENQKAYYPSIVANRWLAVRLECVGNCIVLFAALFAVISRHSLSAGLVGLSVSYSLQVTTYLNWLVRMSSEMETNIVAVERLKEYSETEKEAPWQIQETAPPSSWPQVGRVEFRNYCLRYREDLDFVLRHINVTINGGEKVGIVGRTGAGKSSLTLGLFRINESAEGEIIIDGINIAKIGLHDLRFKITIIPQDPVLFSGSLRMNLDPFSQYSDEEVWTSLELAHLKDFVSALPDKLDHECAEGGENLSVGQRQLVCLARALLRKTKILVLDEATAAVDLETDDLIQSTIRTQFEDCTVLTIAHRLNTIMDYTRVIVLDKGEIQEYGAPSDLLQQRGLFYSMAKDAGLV
Protocol: The ABC transporter-inhibiting ability of the potential inhibitors identified were further tested by evaluating their ability to resensitize ABCG2-overexpressing NCI-H460/MX20 cells to MTX, or MDCKII cells overexpressing Pgp or MRP1, to Col. Cells were plated in 96-well plates at 1×10^4 per well and allowed to attach. […] Colchicine was added at 1 μM for MDCKII/Pgp cells and 0.3 μM for MDCKII/MRP1 cells. […] In brief, 1 mg/ml XTT (Polysciences, Warrington, Pa.) was mixed with 0.025 mM PMS (Sigma), and 50 μl of the mixture was added to each well and incubated for 4 hours at 37° C. After the plates were mixed on a plate shaker, absorbance at 450 nm was measured. All results were normalized to a percentage of absorbance obtained in controls.
MDCKII cells overexpressing Pgp or MRP1 were incubated for two days in medium containing 1 μM (for Pgp) or 0.3 μM (for MRP1) Col and increasing concentrations of each ABCG2 inhibitor.

[5] = target: T1, ABCG2; conditions: 1 h, 20 μM
[6] = target: T1, ABCG2; assay: BODIPY-prazosin uptake assay (flow cytometry) in HEK293/ABCG2 cells; conditions: compound 20 μM; for BP (BODIPY-prazosin dye uptake assay): 1 h; for BODIPY-prazosin assay result: flow cytometry
[7] = compound 1 μM with 15 μM MTX, two days
[8] = Table 2, HEK293/ABCG2/fLuc cells, compound approximately 17 μM, ~50 μg/mL D-luciferin, 40 min time point
[9] = Table 4, approximately 17 μM, 40 min time point
[10] = compound 20 μM, H460/MX20 cells

O=C1c2c(O)ccc(O)c2C(=O)c2c(NCCNCCO)ccc(NCCNCCO)c21 [MTX, mitoxantrone]
survival of parent cells ([1]; 15 μM MTX alone): < 20%
survival of parent cells ([1]; 30 μM MTX alone): ~9%
survival of H460/MX20 cells ([2]; 15 μM MTX alone, three days): 80%
survival of H460/MX20 cells ([2]; 30 μM MTX alone, three days): ~40%

CC(=O)c1ccc2c(c1)N(CCCN(C)C)c1ccccc1S2 [acepromazine]
Fold (BLI enhancement), previously unknown compounds ([3]; human, 40 min, 17 μM): 6.2 fold
Fold (BLI enhancement, S/B ratio over control) ([3]; human, 40 min, 17 μM): 6.2 fold
MTX (mitoxantrone resensitization assay) ([2]; H460/MX20 cells with MTX): Y

CCCCCCCCCCCCOCCOCCOCCOCCO [brij, Brij 30]
resensitization of H460/MX20 cells to MTX ([2]; after two days of incubation (data not shown)): resensitize H460/MX20 cells to MTX significantly

COc1cc(N)c(Cl)cc1C(=O)NC1CCN(Cc2ccccc2)CC1 [clebopride maleate]
IC50 [3]: 8.2 µM
Fold (BLI enhancement), previously unknown compounds ([3]; human, 40 min, 17 μM): 7.9 fold
Fold (BLI enhancement, S/B ratio over control) ([3]; human, 40 min, 17 μM): 7.9 fold
MRP1 inhibition [4]: weak
MTX (mitoxantrone resensitization assay) ([2]; H460/MX20 cells with MTX): Y

CCN(CC)CCOc1ccc(C(=C(Cl)c2ccccc2)c2ccccc2)cc1 [clomiphene citrate]
Fold (BLI enhancement), previously unknown compounds ([3]; human, 40 min, 17 μM): 6.7 fold
Fold (BLI enhancement, S/B ratio over control) ([3]; human, 40 min, 17 μM): 6.7 fold
resensitization of H460/MX20 cells to MTX [2, 7]: showed resensitization of H460/MX20 cells to MTX

C[C@H]1O[C@@H](O[C@H]2[C@@H](O)C[C@H](O[C@H]3[C@@H](O)C[C@H](O[C@H]4CC[C@@]5(C)[C@H](CC[C@@H]6[C@@H]5CC[C@]5(C)[C@@H](C7=CC(=O)OC7)CC[C@]65O)C4)O[C@@H]3C)O[C@@H]2C)C[C@H](O)[C@@H]1O [digitoxin]
BLI signal enhancement at lower concentrations [3]: enhance BLI signal minimally
Fold (BLI enhancement), previously unknown compounds ([3]; human): 5.7 fold
Fold (BLI enhancement, S/B ratio over control) ([3]; human): 5.7 fold
reduction of survival rate of H460/MX20 cells [2]: did not reduce the survival rate of H460/MX20 cells significantly

Cc1c(-c2ccccc2)oc2c(C(=O)OCCN3CCCCC3)cccc2c1=O [flavoxate hydrochloride]
IC50 [3]: 20 µM
Fold (BLI enhancement), previously unknown compounds ([3]; human, 40 min, 17 μM): 11.2 fold
Fold (BLI enhancement, S/B ratio over control) ([3]; human, 40 min, 17 μM): 11.2 fold
MRP1 inhibition [4]: weak
MTX (mitoxantrone resensitization assay) ([2]; H460/MX20 cells with MTX): Y

CC(C)C(=O)Nc1ccc([N+](=O)[O-])c(C(F)(F)F)c1 [flutamide]
Fold (BLI enhancement), previously unknown compounds ([3]; human, 40 min, 17 μM): 6.1 fold
Fold (BLI enhancement, S/B ratio over control) ([3]; human, 40 min, 17 μM): 6.1 fold
MTX (mitoxantrone resensitization assay) ([2]; H460/MX20 cells with MTX): Y

O=C(OCC(O)CO)c1ccccc1Nc1ccnc2cc(Cl)ccc12 (stereo not drawn) [glafenine]
IC50 [3]: 3.2 µM
BLI signal enhancement ([3]; human, 40 min, 17 μM): ~20 fold
Fold (BLI enhancement), previously unknown compounds ([3]; human, 40 min, 17 μM): 20.6 fold
Fold (BLI enhancement, S/B ratio over control) ([3]; human, 40 min, 17 μM): 20.6 fold
concentration from which MDCKII/MRP1 cells are resensitized to Col ([4]; 0.3 μM Col, two days): 10 µM
MTX (mitoxantrone resensitization assay) [2]: Y
concentration that effectively resensitizes H460/MX20 cells to MTX [2]: ≤ 0.001 µM
relative potency in dose-dependent MTX resensitization [2]: more potent ABCG2 inhibitor than FTC, doxazosin mesylate, clebopride maleate, and flavoxate hydrochloride
survival of H460/MX20 cells [2]: 13%

CC(C)(C(=O)c1cccnc1)c1cccnc1 [metyrapone, 2-methyl-1,2-dipyridin-3-yl-propan-1-one]
Fold (BLI enhancement), previously unknown compounds ([3]; human, 40 min, 17 μM): 6.3 fold
Fold (BLI enhancement, S/B ratio over control) ([3]; human, 40 min, 17 μM): 6.3 fold
MTX (mitoxantrone resensitization assay) ([2]; H460/MX20 cells with MTX): Y

CCN(CC)CCCC(C)Nc1c2ccc(Cl)cc2nc2ccc(OC)cc12 (stereo not drawn) [quinacrine]
BODIPY-prazosin assay result [5]: confirmed as an ABCG2 inhibitor
Fold (BLI enhancement), previously unknown compounds ([3]; human, 40 min, 17 μM): 10.6 fold
Fold (BLI enhancement, S/B ratio over control) ([3]; human, 40 min, 17 μM): 10.6 fold
cytotoxicity in the MTX resensitization assay [2]: too cytotoxic to be tested

O=C(c1ccc(OCCN2CCCCC2)cc1)c1c(-c2ccc(O)cc2)sc2cc(O)ccc12 [raloxifene hydrochloride]
Fold (BLI enhancement), previously unknown compounds ([3]; human, 40 min, 17 μM): 5.4 fold
Fold (BLI enhancement, S/B ratio over control) ([3]; human, 40 min, 17 μM): 5.4 fold
MTX (mitoxantrone resensitization assay) ([2]; H460/MX20 cells with MTX): Y

Cc1cc2nc3c(=O)[nH]c(=O)nc-3n(C[C@H](O)[C@H](O)[C@H](O)CO)c2cc1C [riboflavin]
Fold (BLI enhancement), known compounds ([3]; human, 40 min, 17 μM): 5.4 fold
Fold (BLI enhancement, S/B ratio over control) ([3]; human, 40 min, 17 μM): 5.4 fold
MTX (mitoxantrone resensitization assay) ([2]; H460/MX20 cells with MTX): Y

C=C(C)[C@H]1Cc2c(ccc3c2O[C@@H]2COc4cc(OC)c(OC)cc4[C@@H]2C3=O)O1 [rotenone]
Fold (BLI enhancement), previously unknown compounds ([3]; human): 6.7 fold
Fold (BLI enhancement, S/B ratio over control) ([3]; human): 6.7 fold
BP (BODIPY-prazosin dye uptake assay) [6]: Y
BODIPY-prazosin assay result [6]: positive
MTX (mitoxantrone resensitization assay) [2]: Y

CC(C)(C)c1ccc(C(O)CCCN2CCC(C(O)(c3ccccc3)c3ccccc3)CC2)cc1 (stereo not drawn) [terfenadine]
Fold (BLI enhancement, S/B ratio over control) ([3]; human, 40 min, 17 μM): 4.2 fold

CSc1ccc2c(c1)N(CCC1CCCCN1C)c1ccccc1S2 (stereo not drawn) [th oridaz ne]
Fold (BLI enhancement, S/B ratio over control) [3, 8]: 2.5 fold

Cc1ccc(C(=O)C(C)CN2CCCCC2)cc1 (stereo not drawn) [tolperisone hydrochloride]
Fold (BLI enhancement, S/B ratio over control) ([3]; human, 40 min, 17 μM): 2.1 fold

CN(C)CCOc1ccc(/C(=C(/CCCl)c2ccccc2)c2ccccc2)cc1 [toremifene]
Fold (BLI enhancement, S/B ratio over control) ([3]; human, 40 min, 17 μM): 2.3 fold

CCCCNc1c(C(=O)OCC)c(C)nc2c1cnn2CC [tracazolate]
Fold (BLI enhancement), previously unknown compounds ([3]; human, 40 min, 17 μM): 20 fold
Fold (BLI enhancement, S/B ratio over control) ([3]; human, 40 min, 17 μM): 20.0 fold
MTX (mitoxantrone resensitization assay) ([2]; H460/MX20 cells with MTX): Y

CCCc1nc(C)c2c(=O)[nH]c(-c3cc(S(=O)(=O)N4CCN(CC)CC4)ccc3OCC)nn12 [vardenafil]
Fold (BLI enhancement, S/B ratio over control) ([3]; human, 40 min, 17 μM): 3.3 fold

acetophenazine maleate
MTX (mitoxantrone resensitization assay) ([2]; H460/MX20 cells with MTX): Y

antimycin
Fold (BLI enhancement, S/B ratio over control) [3, 8]: 2.3 fold

estrone hemisuccinate
Fold (BLI enhancement, S/B ratio over control) [3, 8]: 5.4 fold
Fold (BLI enhancement), previously unknown compounds [3, 9]: 5.4 fold

gramicidin
Fold (BLI enhancement, S/B ratio over control) [3, 8]: 6.9 fold
Fold (BLI enhancement), previously unknown compounds [3, 9]: 6.9 fold
resensitization of H460/MX20 cells to MTX [2, 7]: showed resensitization of H460/MX20 cells to MTX
cytotoxicity in the MTX resensitization assay [2, 10]: too cytotoxic to be tested

hesperidin methyl chalcone
Fold (BLI enhancement, S/B ratio over control) [3, 8]: 2.1 fold

ivermect n
Fold (BLI enhancement, S/B ratio over control) [3, 8]: 4.3 fold

verteporfin
Fold (BLI enhancement, S/B ratio over control) [3, 8]: 11.3 fold
Fold (BLI enhancement), previously unknown compounds [3, 9]: 11.3 fold
BP (BODIPY-prazosin dye uptake assay) [6]: N
BODIPY-prazosin assay result [6]: negative
MTX (mitoxantrone resensitization assay) ([2]; H460/MX20 cells with MTX): Y
resensitization of H460/MX20 cells to MTX [2, 7]: showed resensitization of H460/MX20 cells to MTX
cytotoxicity in the MTX resensitization assay [2, 10]: too cytotoxic to be tested
cytotoxicity in the MTX resensitization assay ([2]; compound 20 μM, H460/MX20 cells, listed as Verteporfin): too cytotoxic to validate by MTX assay
